Measured values reported in PMC6127857 (Journal of structural biology, 2018).

What was measured:
[1] = biological target: AmpKR2 (Streptomyces nodosus, UniProt Q93NW7); assay: X-ray crystal structure, […] Å, co-crystallised; assay type: binding; conditions: ternary complex with 2-methyl-3-oxopentanoyl-pantetheine; 3 mM NADP+
[2] = biological target: AmpKR2 (Streptomyces nodosus, UniProt Q93NW7, G2883T/Q2892H); assay: X-ray crystal structure, […] Å, co-crystallised; assay type: binding; conditions: ternary complex with 2-methyl-3-oxopentanoyl-pantetheine; 3 mM NADP+

NC(=O)c1ccc[n+]([C@@H]2O[C@H](COP(=O)(O)OP(=O)(O)OC[C@H]3O[C@@H](n4cnc5c(N)ncnc54)[C@H](OP(=O)(O)O)[C@@H]3O)[C@@H](O)[C@H]2O)c1 [NADP^+]
X-ray crystal structure, 1.80 Å, co-crystallised [1]: well-defined electron density for NADP^+ and 2-methyl-3-oxopentanoyl-pantetheine was observed in the active sites
X-ray crystal structure, 1.96 Å, co-crystallised [2]: both wild type AmpKR2 and its G355T/Q364H mutant
